According to patent US12448369B2 (Edgewise Therapeutics, Inc., priority 2023, dated 2025):

Columns and labels:
[1] = test system: Rabbit Psoas myofibrils (skeletal myosin ATPase); experiment: Myofibril ATPase assay, rabbit psoas (skeletal) myofibrils; assay type: biochemical; conditions: rabbit psoas myofibrils
Outline: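 Myofibrils homogenized in Triton X-100 buffer were assayed in pH 7.0 PIPES with defined Ca2+/EGTA. Myosin-driven ADP formation was coupled to NADH oxidation, with depletion monitored at 340 nm. Each value is the concentration that lowers activity to 75% of vehicle or, for activators, raises it to 125%.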

[2] = target: T1, Porcine ventricle myofibrils (ventricular myosin ATPase) (Sus scrofa, UniProt P79293); experiment: Myofibril ATPase assay, porcine ventricle myofibrils; assay type: biochemical, porcine (Yucatan minipigs); conditions: porcine ventricle myofibrils
T1 construct: Myofibrils from porcine cardiac muscle was isolated from the left ventricle of Yucatan minipigs; tissue Exemplar Genetics; host or cells: left ventricle of Yucatan minipigs, myofibrils prepared in house
Outline: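 In a coupled enzyme format, ADP from myofibril ATPase drives NADH oxidation, monitored kinetically at 340 nm for 75 min using minipig ventricle myofibrils. Effective concentrations giving 25% loss or gain of activity relative to vehicle were calculated from 4-parameter fits.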

[3] = test system: Porcine atria myofibrils (atrial myosin ATPase); experiment: Myofibril ATPase assay, porcine atria myofibrils; assay type: biochemical; conditions: porcine atria myofibrils
Outline: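 Values are Y75 (concentration cutting ATPase activity to 75% of vehicle) or Y125 (raising it to 125%), taken from 4-parameter logistic fits. Rates come from NADH disappearance at 340 nm in a PK/LDH-coupled assay with porcine atria myofibrils.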

[4] = Y75 value (75% activity relative to no compound)

T1 sequence (P79293 whole entry): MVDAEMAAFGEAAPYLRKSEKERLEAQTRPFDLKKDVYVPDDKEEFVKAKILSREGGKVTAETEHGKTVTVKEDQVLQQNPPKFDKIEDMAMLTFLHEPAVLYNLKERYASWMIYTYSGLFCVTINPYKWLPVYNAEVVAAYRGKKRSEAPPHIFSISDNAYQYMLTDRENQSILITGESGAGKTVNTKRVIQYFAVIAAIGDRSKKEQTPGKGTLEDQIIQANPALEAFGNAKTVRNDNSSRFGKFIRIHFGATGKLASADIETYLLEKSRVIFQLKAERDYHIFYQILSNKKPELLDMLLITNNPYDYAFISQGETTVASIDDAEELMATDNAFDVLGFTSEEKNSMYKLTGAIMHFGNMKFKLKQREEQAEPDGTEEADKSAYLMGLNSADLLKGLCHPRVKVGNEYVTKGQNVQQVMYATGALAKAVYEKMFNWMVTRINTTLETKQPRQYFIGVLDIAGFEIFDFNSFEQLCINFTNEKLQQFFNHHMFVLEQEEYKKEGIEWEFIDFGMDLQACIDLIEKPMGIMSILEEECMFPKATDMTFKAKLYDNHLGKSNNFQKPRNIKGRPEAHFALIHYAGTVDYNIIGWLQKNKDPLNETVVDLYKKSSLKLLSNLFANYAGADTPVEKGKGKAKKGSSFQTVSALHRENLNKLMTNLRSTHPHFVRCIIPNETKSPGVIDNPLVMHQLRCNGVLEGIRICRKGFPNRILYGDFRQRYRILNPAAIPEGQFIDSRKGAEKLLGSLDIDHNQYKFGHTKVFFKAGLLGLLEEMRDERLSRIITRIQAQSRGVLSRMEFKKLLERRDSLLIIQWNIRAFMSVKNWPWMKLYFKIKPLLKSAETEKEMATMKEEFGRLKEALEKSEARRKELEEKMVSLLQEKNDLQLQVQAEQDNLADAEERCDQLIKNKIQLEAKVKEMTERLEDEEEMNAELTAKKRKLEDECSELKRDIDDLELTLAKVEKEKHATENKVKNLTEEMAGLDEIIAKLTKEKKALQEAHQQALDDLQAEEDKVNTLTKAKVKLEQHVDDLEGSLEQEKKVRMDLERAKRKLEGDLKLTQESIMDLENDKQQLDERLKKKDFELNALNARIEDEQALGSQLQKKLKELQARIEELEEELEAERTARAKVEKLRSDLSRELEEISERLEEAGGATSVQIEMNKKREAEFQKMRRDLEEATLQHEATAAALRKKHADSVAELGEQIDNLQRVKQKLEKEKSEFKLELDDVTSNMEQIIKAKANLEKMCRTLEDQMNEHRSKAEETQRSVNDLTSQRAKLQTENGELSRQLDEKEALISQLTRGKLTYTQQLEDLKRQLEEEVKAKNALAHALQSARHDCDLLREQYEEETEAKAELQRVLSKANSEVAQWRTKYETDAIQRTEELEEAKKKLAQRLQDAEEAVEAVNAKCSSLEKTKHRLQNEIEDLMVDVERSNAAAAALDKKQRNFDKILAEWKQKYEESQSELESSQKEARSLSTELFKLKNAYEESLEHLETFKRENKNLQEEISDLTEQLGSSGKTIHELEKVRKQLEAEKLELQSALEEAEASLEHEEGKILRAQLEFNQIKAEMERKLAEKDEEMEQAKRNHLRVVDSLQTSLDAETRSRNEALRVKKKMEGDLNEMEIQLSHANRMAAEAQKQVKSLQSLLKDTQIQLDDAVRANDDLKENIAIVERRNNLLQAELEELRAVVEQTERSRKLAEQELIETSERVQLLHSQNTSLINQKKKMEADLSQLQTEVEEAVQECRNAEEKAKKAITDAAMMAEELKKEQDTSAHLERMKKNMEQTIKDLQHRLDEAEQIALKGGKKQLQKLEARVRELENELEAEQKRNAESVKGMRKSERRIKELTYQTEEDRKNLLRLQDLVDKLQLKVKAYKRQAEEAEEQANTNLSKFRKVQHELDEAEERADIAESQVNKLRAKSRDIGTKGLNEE

Cc1c(C(F)(F)C(=O)N[C@@H](C)c2cnc(C#N)cn2)c(=O)[nH]c2ccc(F)cc12 (single isomer, unassigned) [compound 4828]
Skeletal EC25 ([1]; Y75 value (no ‡ mark)): 0.24 µM
Ventricular EC25 ([2]; Y75 value (no ‡ mark)): 1.13 µM
Atrial EC25 ([3]; Y75 value (no ‡ mark)): 0.30 µM

C[C@H](NC(=O)Cc1c(C2CC2)c2cc(F)ccc2[nH]c1=O)c1ccc(C#N)nn1 (single isomer, unassigned) [compound 2054]
Skeletal EC25 ([1]; Y75 value (no ‡ mark)): 0.15 µM
Ventricular EC25 ([2]; Y75 value (no ‡ mark)): 3.72 µM
Atrial EC25 ([3]; Y75 value (no ‡ mark)): 0.23 µM

Cc1nc(C#N)ccc1[C@H](C)NC(=O)Cc1c(C)c2c(C)c(F)ccc2[nH]c1=O (single isomer, unassigned) [compound 2079]
Skeletal EC25 ([1]; Y75 value (no ‡ mark)): 0.03 µM
Ventricular EC25 ([2]; Y75 value (no ‡ mark)): 0.07 µM
Atrial EC25 ([3]; Y75 value (no ‡ mark)): 0.13 µM

C[C@H](NC(=O)C(F)(F)c1cc2cc(F)ccc2[nH]c1=O)c1cc(C#N)ccn1 (single isomer, unassigned) [compound 2574]
Skeletal EC25 ([1]; Y75 value (no ‡ mark)): 100.00 µM
Ventricular EC25 ([2]; Y75 value (no ‡ mark)): 100.00 µM
Atrial EC25 ([3]; Y75 value (no ‡ mark)): 100.00 µM

Cc1c(CC(=O)N[C@@H](C)c2ncc(C#N)cn2)c(=O)[nH]c2ccc(F)c(Cl)c12 (single isomer, unassigned) [compound 2056]
Skeletal EC25 ([1]; Y75 value (no ‡ mark)): 0.06 µM
Ventricular EC25 ([2]; Y75 value (no ‡ mark)): 0.29 µM
Atrial EC25 ([3]; Y75 value (no ‡ mark)): 0.11 µM

Cc1nc([C@@H](C)NC(=O)Cc2c(C)c3c(C)c(F)ccc3[nH]c2=O)ncc1C#N (single isomer, unassigned) [compound 4837]
Skeletal EC25 ([1]; Y75 value (no ‡ mark)): 0.21 µM
Ventricular EC25 ([2]; Y75 value (no ‡ mark)): 3.67 µM
Atrial EC25 ([3]; Y75 value (no ‡ mark)): 1.90 µM

Cc1nccc2[nH]c(=O)c(CC(=O)N[C@H](C)c3ccc(C#N)cn3)c(C)c12 (single isomer, unassigned) [compound 253]
Skeletal EC25 ([1]; Y75 value): 100.00 µM
Ventricular EC25 ([2]; Y75 value): 100.00 µM
Atrial EC25 [3, 4]: 100.00 µM

Cc1c(CC(=O)N[C@H](CO)c2ccc(C#N)cc2F)c(=O)[nH]c2ccc(C#N)nc12 [compound 220]
Skeletal EC25 ([1]; Y75 value): 100.00 µM
Ventricular EC25 ([2]; Y75 value): 100.00 µM
Atrial EC25 [3, 4]: 100.00 µM

Cc1c(C(F)(F)C(=O)N[C@@H](C)c2ccc(C#N)nn2)c(=O)[nH]c2ccc(F)cc12 (single isomer, unassigned) [compound 2556]
Skeletal EC25 ([1]; Y75 value (no ‡ mark)): 5.17 µM
Ventricular EC25 ([2]; Y75 value (no ‡ mark)): 16.01 µM
Atrial EC25 ([3]; Y75 value (no ‡ mark)): 6.56 µM

C[C@H](NC(=O)Cc1c(C(F)(F)F)c2ncccc2[nH]c1=O)c1ccc(F)cc1F [compound 417]
Skeletal EC25 ([1]; Y75 value): 0.17 µM
Ventricular EC25 ([2]; Y75 value): 9.50 µM
Atrial EC25 [3, 4]: 9.70 µM

Cc1c(C(F)(F)C(=O)N[C@H](C)c2cc(C#N)ccn2)c(=O)[nH]c2ccc(F)cc12 (single isomer, unassigned) [compound 2575]
Skeletal EC25 ([1]; Y75 value (no ‡ mark)): 14.65 µM
Ventricular EC25 ([2]; Y75 value (no ‡ mark)): 20.79 µM
Atrial EC25 ([3]; Y75 value (no ‡ mark)): 16.13 µM

Cc1c(CC(=O)N[C@H](C)c2ncc(C3COC3)cn2)c(=O)[nH]c2ccc(F)c(F)c12 (single isomer, unassigned) [compound 2043]
Skeletal EC25 ([1]; Y75 value (no ‡ mark)): 7.03 µM
Ventricular EC25 ([2]; Y75 value (no ‡ mark)): 4.16 µM
Atrial EC25 ([3]; Y75 value (no ‡ mark)): 1.01 µM

Cc1c(F)ccc2[nH]c(=O)c(C(F)(F)C(=O)N[C@H](C)c3ncc(C#N)cc3F)c(C#N)c12 (single isomer, unassigned) [compound 2519]
Skeletal EC25 ([1]; Y75 value (no ‡ mark)): 0.52 µM
Ventricular EC25 ([2]; Y75 value (no ‡ mark)): 1.19 µM
Atrial EC25 ([3]; Y75 value (no ‡ mark)): 0.31 µM

Cc1nccc2[nH]c(=O)c(CC(=O)N[C@@H](C)c3ncc(F)cc3F)c(C)c12 (single isomer, unassigned) [compound 379]
Skeletal EC25 ([1]; Y75 value): 0.36 µM
Ventricular EC25 ([2]; Y75 value): 5.81 µM
Atrial EC25 [3, 4]: 2.36 µM

Cc1nc(C#N)ccc1[C@H](C)NC(=O)Cc1c(C)c2cc(F)ccc2[nH]c1=O [compound 1051]
Skeletal EC25 ([1]; Y75 value (no ‡ mark)): 0.03 µM
Ventricular EC25 ([2]; Y75 value (no ‡ mark)): 0.26 µM
Atrial EC25 ([3]; Y75 value (no ‡ mark)): 0.14 µM

Cc1c(CC(=O)N[C@H](CO)c2ccc(C#N)cc2F)c(=O)[nH]c2ccnc(OC3CC3)c12 [compound 203]
Skeletal EC25 ([1]; Y75 value): 1.10 µM
Ventricular EC25 ([2]; Y75 value): 100.00 µM
Atrial EC25 [3, 4]: 100.00 µM

C[C@H](NC(=O)Cc1cc2nc(O)ccc2[nH]c1=O)c1ccc(F)cc1F [compound 300]
Skeletal EC25 ([1]; Y75 value): 100.00 µM
Ventricular EC25 ([2]; Y75 value): 100.00 µM
Atrial EC25 [3, 4]: 100.00 µM

C[C@@H](NC(=O)Cc1cc2cc(F)ccc2[nH]c1=O)c1ncc(C#N)cn1 (single isomer, unassigned) [compound 2029]
Skeletal EC25 ([1]; Y75 value (no ‡ mark)): 3.21 µM
Ventricular EC25 ([2]; Y75 value (no ‡ mark)): 18.01 µM
Atrial EC25 ([3]; Y75 value (no ‡ mark)): 1.26 µM

Cc1nccc2[nH]c(=O)c(CC(=O)N[C@@H](C)c3ccc(F)cc3F)c(C)c12 [compound 433]
Skeletal EC25 ([1]; Y75 value): 0.03 µM
Ventricular EC25 ([2]; Y75 value): 0.64 µM
Atrial EC25 [3, 4]: 0.15 µM
